According to the supplement of paper PMC10307832:

Experiments:
Assay in all cases: relative viability (nuclei count vs DMSO), 5 days (fraction); higher = more cells survive
NCI-H2009 = tested on: NCI-H2009
Outline: (§1)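 Lung cancer cell lines were pin-tool dosed in 1536-well plates on the day after seeding, with either a lone drug or a fixed anchor-drug dose plus five library-drug doses (not always all listed) in √10 steps. Nuclei were counted on 4× images after 5 days. Relative viability is the ratio of treated-well to vehicle-well nuclei counts, with each value a median of duplicate plates.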

SW 1573 = tested on: SW 1573
Outline: as §1

NCI-H1915 = tested on: NCI-H1915
Outline: as §1

LU99A = tested on: LU99A
Outline: as §1

LC-2-ad = tested on: LC-2-ad
Outline: as §1

NCI-H2126 = tested on: NCI-H2126
Outline: as §1

NCI-H1651 = tested on: NCI-H1651
Outline: as §1

UMC-11 = tested on: UMC-11
Outline: as §1

EPLC-272H = tested on: EPLC-272H
Outline: as §1

COR-L23 = tested on: COR-L23
Outline: as §1

PC-14 = tested on: PC-14
Outline: as §1

Clc1ccc(Nc2nnc(Cc3ccncc3)c3ccccc23)cc1 [Vatalanib] + C[C@]1(O)C[C@@H](c2nc(-c3ccc4ccc(-c5ccccc5)nc4c3)c3c(N)nccn32)C1 [Linsitinib] (partner 1 µM)
relative viability (NCI-H2009; first compound 0.1265 µM): 1.04 | relative viability (NCI-H2009; first compound 0.4 µM): 1.3 | relative viability (NCI-H2009; first compound 1.265 µM): 1.16 | relative viability (NCI-H2009; first compound 4 µM): 1.18 | relative viability (SW 1573; first compound 0.04 µM): 1 | relative viability (SW 1573; first compound 0.1265 µM): 0.791 | relative viability (SW 1573; first compound 0.4 µM): 0.781 | relative viability (SW 1573; first compound 1.265 µM): 0.802 | relative viability (SW 1573; first compound 4 µM): 0.723 | relative viability (NCI-H1915; first compound 0.04 µM): 1.06 | relative viability (NCI-H1915; first compound 0.1265 µM): 1.09 | relative viability (NCI-H1915; first compound 0.4 µM): 1.09 | relative viability (NCI-H1915; first compound 1.265 µM): 1.04 | relative viability (NCI-H1915; first compound 4 µM): 1.09 | relative viability (LU99A; first compound 0.04 µM): 0.545 | relative viability (LU99A; first compound 0.1265 µM): 0.585 | relative viability (LU99A; first compound 0.4 µM): 0.558 | relative viability (LU99A; first compound 1.265 µM): 0.534 | relative viability (LU99A; first compound 4 µM): 0.49 | relative viability (LC-2-ad; first compound 0.04 µM): 0.916 | relative viability (LC-2-ad; first compound 0.1265 µM): 0.799 | relative viability (LC-2-ad; first compound 0.4 µM): 0.971 | relative viability (LC-2-ad; first compound 1.265 µM): 0.841 | relative viability (LC-2-ad; first compound 4 µM): 0.883 | relative viability (NCI-H2126; first compound 0.04 µM): 0.669 | relative viability (NCI-H2126; first compound 0.1265 µM): 0.72 | relative viability (NCI-H2126; first compound 0.4 µM): 0.669 | relative viability (NCI-H2126; first compound 1.265 µM): 0.729 | relative viability (NCI-H2126; first compound 4 µM): 0.739 | relative viability (NCI-H1651; first compound 0.04 µM): 0.971 | relative viability (NCI-H1651; first compound 0.1265 µM): 0.927 | relative viability (NCI-H1651; first compound 0.4 µM): 0.94 | relative viability (NCI-H1651; first compound 1.265 µM): 0.948 | relative viability (NCI-H1651; first compound 4 µM): 1.13 | relative viability (UMC-11; first compound 0.04 µM): 1.03 | relative viability (UMC-11; first compound 0.1265 µM): 0.808 | relative viability (UMC-11; first compound 0.4 µM): 1.01 | relative viability (UMC-11; first compound 1.265 µM): 1.04 | relative viability (UMC-11; first compound 4 µM): 0.987 | relative viability (EPLC-272H; first compound 0.04 µM): 1.2 | relative viability (EPLC-272H; first compound 0.1265 µM): 1.19 | relative viability (EPLC-272H; first compound 0.4 µM): 1.27 | relative viability (EPLC-272H; first compound 1.265 µM): 1.18 | relative viability (EPLC-272H; first compound 4 µM): 1.31 | relative viability (COR-L23; first compound 0.04 µM): 0.978 | relative viability (COR-L23; first compound 0.1265 µM): 0.943 | relative viability (COR-L23; first compound 0.4 µM): 1.08 | relative viability (COR-L23; first compound 1.265 µM): 0.811 | relative viability (COR-L23; first compound 4 µM): 0.922 | relative viability (PC-14; first compound 0.04 µM): 0.955 | relative viability (PC-14; first compound 0.1265 µM): 0.905 | relative viability (PC-14; first compound 0.4 µM): 1.03 | relative viability (PC-14; first compound 1.265 µM): 0.955 | relative viability (PC-14; first compound 4 µM): 0.871
